# Reference: ChEMBL document CHEMBL1201862, “PubChem BioAssay data set” (2004)
#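 Compound exposure: 48 hours, 5 concentrations, 96-well plates. GI50: concentration for 50% inhibition of growth.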 Activity calls are given as the source filed them. Rule as the data show it: active = GI50 up to about 1.1 µM and inactive = higher.
# Experiments:
# Test in all cases: inhibition of tumour cell growth, NCI panel, 48 h
# CAKI-1 = system: CAKI-1
# M19-MEL = system: M19-MEL
# OVCAR-3 = system: OVCAR-3
# OVCAR-5 = system: OVCAR-5
# NCI-H522 = system: NCI-H522
# TK-10 = system: TK-10
# SK-MEL-28 = system: SK-MEL-28
# SK-MEL-5 = system: SK-MEL-5
# U-251 = system: U-251
# SN12C = system: SN12C
# HCC 2998 = system: HCC 2998
# COLO 205 = system: COLO 205
# SF-295 = system: SF-295
# CCRF-CEM = system: CCRF-CEM
# SK-MEL-2 = system: SK-MEL-2
# KM12 = system: KM12
# SNB-78 = system: SNB-78
# SNB-19 = system: SNB-19
# HT-29 = system: HT-29
# HCT-15 = system: HCT-15
# KM-20L2 = system: KM-20L2
# DLD-1 = system: DLD-1
# OVCAR-8 = system: OVCAR-8
# NCI-H23 = system: NCI-H23
# SW-620 = system: SW-620
# RXF 631 = system: RXF 631
# Malme-3M = system: Malme-3M
# XF498 = system: XF498
# M14 = system: M14
# SK-OV-3 = system: SK-OV-3
# K562 = system: K562
# HOP-92 = system: HOP-92
# OVCAR-4 = system: OVCAR-4
# UACC-62 = system: UACC-62
# UO-31 = system: UO-31
# MOLT-4 = system: MOLT-4
# IGROV-1 = system: IGROV-1
# SR = system: SR
# RXF 393 = system: RXF 393
# HOP-18 = system: HOP-18
# SF-539 = system: SF-539
# LOX IMVI = system: LOX IMVI
# NCI-H460 = system: NCI-H460
# NCI-H226 = system: NCI-H226
# SF-268 = system: SF-268
# LXFL 529 = system: LXFL 529
# UACC-257 = system: UACC-257
# HCT-116 = system: HCT-116
# 786-0 = system: 786-0
# HL-60 = system: HL-60
# A549 = system: A549
# DMS-114 = system: DMS-114
# RPMI-8226 = system: RPMI-8226
# SNB-75 = system: SNB-75
# HOP-62 = system: HOP-62
# EKVX = system: EKVX
# DMS-273 = system: DMS-273
# ACHN = system: ACHN
smiles,measurement,setting,value
COc1ccccc1/C=C1\N=C(C)OC1=O,GI50,CAKI-1,> 100 µM (inactive)
same,GI50,M19-MEL,> 100 µM (inactive)
same,GI50,OVCAR-3,> 100 µM (inactive)
same,GI50,OVCAR-5,> 100 µM (inactive)
same,GI50,NCI-H522,> 100 µM (inactive)
same,GI50,TK-10,> 100 µM (inactive)
same,GI50,SK-MEL-28,> 100 µM (inactive)
same,GI50,SK-MEL-5,> 100 µM (inactive)
same,GI50,U-251,> 100 µM (inactive)
same,GI50,SN12C,> 100 µM (inactive)
same,GI50,HCC 2998,> 100 µM (inactive)
same,GI50,COLO 205,> 100 µM (inactive)
same,GI50,SF-295,> 100 µM (inactive)
same,GI50,CCRF-CEM,56 µM (inactive)
same,GI50,SK-MEL-2,> 100 µM (inactive)
same,GI50,KM12,> 100 µM (inactive)
same,GI50,SNB-78,> 100 µM (inactive)
same,GI50,SNB-19,> 100 µM (inactive)
same,GI50,HT-29,> 100 µM (inactive)
same,GI50,HCT-15,> 100 µM
same,GI50,KM-20L2,> 100 µM (inactive)
same,GI50,DLD-1,> 100 µM (inactive)
same,GI50,OVCAR-8,> 100 µM (inactive)
same,GI50,NCI-H23,> 100 µM (inactive)
same,GI50,SW-620,> 100 µM (inactive)
same,GI50,RXF 631,> 100 µM (inactive)
same,GI50,Malme-3M,> 100 µM (inactive)
same,GI50,XF498,> 100 µM (inactive)
same,GI50,M14,> 100 µM (inactive)
same,GI50,SK-OV-3,> 100 µM (inactive)
same,GI50,K562,> 100 µM (inactive)
same,GI50,HOP-92,> 100 µM (inactive)
same,GI50,OVCAR-4,> 100 µM (inactive)
same,GI50,UACC-62,> 100 µM (inactive)
same,GI50,UO-31,> 100 µM (inactive)
same,GI50,MOLT-4,> 100 µM (inactive)
same,GI50,IGROV-1,> 100 µM (inactive)
same,GI50,SR,> 100 µM (inactive)
same,GI50,RXF 393,> 100 µM (inactive)
COc1cc2cnc3c4cc(OC)c(OC(C)C)cc4ccc3c2cc1OC,GI50,CAKI-1,> 100 µM (inactive)
same,GI50,HOP-18,> 100 µM (inactive)
same,GI50,M19-MEL,> 100 µM (inactive)
same,GI50,OVCAR-3,> 100 µM (inactive)
same,GI50,OVCAR-5,> 100 µM (inactive)
same,GI50,NCI-H522,> 100 µM (inactive)
same,GI50,SF-539,> 100 µM (inactive)
same,GI50,TK-10,> 100 µM (inactive)
same,GI50,LOX IMVI,> 100 µM (inactive)
same,GI50,NCI-H460,> 100 µM (inactive)
same,GI50,SK-MEL-28,> 100 µM (inactive)
same,GI50,SK-MEL-5,> 100 µM (inactive)
same,GI50,U-251,> 100 µM (inactive)
same,GI50,NCI-H226,> 100 µM (inactive)
same,GI50,SN12C,> 100 µM (inactive)
same,GI50,HCC 2998,> 100 µM (inactive)
same,GI50,COLO 205,> 100 µM (inactive)
same,GI50,SF-295,> 100 µM (inactive)
same,GI50,CCRF-CEM,> 100 µM (inactive)
same,GI50,SK-MEL-2,> 100 µM (inactive)
same,GI50,SF-268,> 100 µM (inactive)
same,GI50,KM12,> 100 µM (inactive)
same,GI50,SNB-78,> 100 µM (inactive)
same,GI50,LXFL 529,> 100 µM (inactive)
same,GI50,UACC-257,> 100 µM (inactive)
same,GI50,SNB-19,> 100 µM (inactive)
same,GI50,HT-29,> 100 µM (inactive)
same,GI50,HCT-15,> 100 µM
same,GI50,KM-20L2,> 100 µM (inactive)
same,GI50,DLD-1,> 100 µM (inactive)
same,GI50,OVCAR-8,> 100 µM (inactive)
same,GI50,NCI-H23,> 100 µM (inactive)
same,GI50,HCT-116,> 100 µM (inactive)
same,GI50,SW-620,> 100 µM (inactive)
same,GI50,RXF 631,> 100 µM (inactive)
same,GI50,786-0,> 100 µM (inactive)
same,GI50,Malme-3M,> 100 µM (inactive)
same,GI50,M14,> 100 µM (inactive)
same,GI50,HL-60,> 100 µM (inactive)
same,GI50,SK-OV-3,> 100 µM (inactive)
same,GI50,K562,> 100 µM (inactive)
same,GI50,A549,> 100 µM (inactive)
same,GI50,HOP-92,> 100 µM (inactive)
same,GI50,DMS-114,> 100 µM (inactive)
same,GI50,RPMI-8226,> 100 µM (inactive)
same,GI50,OVCAR-4,> 100 µM (inactive)
same,GI50,UACC-62,> 100 µM (inactive)
same,GI50,UO-31,> 100 µM (inactive)
same,GI50,SNB-75,> 100 µM (inactive)
same,GI50,HOP-62,> 100 µM (inactive)
same,GI50,EKVX,> 100 µM (inactive)
same,GI50,DMS-273,> 100 µM (inactive)
same,GI50,MOLT-4,> 100 µM (inactive)
same,GI50,IGROV-1,> 100 µM (inactive)
same,GI50,SR,> 100 µM (inactive)
same,GI50,ACHN,> 100 µM (inactive)
same,GI50,RXF 393,> 100 µM (inactive)
OCCCOC(c1ccccc1)(c1ccccc1)c1ccccc1,GI50,CAKI-1,> 100 µM (inactive)
same,GI50,M19-MEL,> 100 µM (inactive)
same,GI50,OVCAR-3,> 100 µM (inactive)
same,GI50,OVCAR-5,> 100 µM (inactive)
same,GI50,NCI-H522,> 100 µM (inactive)
same,GI50,SF-539,> 100 µM (inactive)
same,GI50,TK-10,> 100 µM (inactive)
same,GI50,LOX IMVI,35.6 µM (inactive)
same,GI50,NCI-H460,> 100 µM (inactive)
same,GI50,SK-MEL-28,> 100 µM (inactive)
same,GI50,SK-MEL-5,> 100 µM (inactive)
same,GI50,U-251,51.5 µM (inactive)
same,GI50,SN12C,> 100 µM (inactive)
same,GI50,HCC 2998,> 100 µM (inactive)
same,GI50,COLO 205,> 100 µM (inactive)
same,GI50,SF-295,82.6 µM (inactive)
same,GI50,CCRF-CEM,> 100 µM (inactive)
same,GI50,SF-268,> 100 µM (inactive)
same,GI50,KM12,> 100 µM (inactive)
same,GI50,SNB-78,38.9 µM (inactive)
same,GI50,LXFL 529,> 100 µM (inactive)
same,GI50,UACC-257,> 100 µM (inactive)
same,GI50,HT-29,24.3 µM (inactive)
same,GI50,HCT-15,> 100 µM
same,GI50,KM-20L2,> 100 µM (inactive)
same,GI50,DLD-1,60.1 µM (inactive)
same,GI50,OVCAR-8,> 100 µM (inactive)
same,GI50,NCI-H23,75.7 µM (inactive)
same,GI50,HCT-116,50.7 µM (inactive)
same,GI50,SW-620,> 100 µM (inactive)
same,GI50,RXF 631,> 100 µM (inactive)
same,GI50,786-0,> 100 µM (inactive)
same,GI50,Malme-3M,> 100 µM (inactive)
same,GI50,XF498,> 100 µM (inactive)
same,GI50,M14,> 100 µM (inactive)
same,GI50,HL-60,> 100 µM (inactive)
same,GI50,SK-OV-3,> 100 µM (inactive)
same,GI50,K562,> 100 µM (inactive)
same,GI50,A549,> 100 µM (inactive)
same,GI50,HOP-92,20.6 µM (inactive)
same,GI50,DMS-114,> 100 µM (inactive)
same,GI50,RPMI-8226,> 100 µM (inactive)
same,GI50,OVCAR-4,> 100 µM (inactive)
same,GI50,UACC-62,88.5 µM (inactive)
same,GI50,UO-31,47 µM (inactive)
same,GI50,SNB-75,20.1 µM (inactive)
same,GI50,HOP-62,39.7 µM (inactive)
same,GI50,DMS-273,> 100 µM (inactive)
same,GI50,MOLT-4,93.3 µM (inactive)
same,GI50,IGROV-1,> 100 µM (inactive)
same,GI50,SR,> 100 µM (inactive)
same,GI50,ACHN,> 100 µM (inactive)
same,GI50,RXF 393,< 0.01 µM (active)
